Measurements: US5948931A (priority 1997, dated 1999)
Values joined by “and” are separate entries in the source; they are usually repeats but may differ in a detail not shown here. Equal entries are not always repeated. “Also recorded” adds a separate entry of the source. Structures can show the parent of a compound that is named as a salt. Where two headings read alike, the source gives them in different places.

Key:
[1] = Photochemical activation (UV irradiation) of ONBCE-TA in Tris buffer; assay type: physicochemical
Procedure: Photochemical Activation Example. 5 mg of o-Nitrobenzyl (E)-dihydroxyphosphinyl)(hydroxyimino)acetate (ONBCE-TA) (prepared analogously to PNHDA) dissolved in 0.5 ml of 100 mM Tris buffer (pH 6.9) was irradiated in a Rayonet apparatus for 17 hr at 39° C. Phosphoric acid (the product from phosphorylation of solvent water) was obtained, yield 11%. The phosphorylation was not noticed in the absence of UV irradiation.

[2] = Stability of DCHA+ salts 3 heated in different solvents (31P NMR); assay type: physicochemical; details: for degraded at 3.5 h: water, read-out: conversion to phosphate
Procedure: Stability of DCHA^+ Salts 3 Heated in Different Solvents. 40 mg 3 (E or Z) was heated in 5 ml of alcohol mixture, H2 O or acetonitrile. Reaction progress was monitored by ^31 P NMR spectroscopy.

[3] = Alkaline hydrolysis of E-3 and Z-3 to salts 4; assay type: physicochemical; details: for time to complete hydrolysis: NaOH in D2O; for time of alkaline hydrolysis: aq. NaOH, 25° C., pH 13-14
Procedure: In an additional aspect of the present invention, C-alkyl esters of 3 can be stable under physiological conditions but can be reactive under more vigorous conditions. The stability of the parent Troika acids in H2 O were analyzed. Alkaline hydrolysis by methods known by those skilled in the art of E-3 and Z-3 (preferably, aq. NaOH, at a temperature of 25° C., at pH 13-14) can give the corresponding sodium salts E-4 and Z-4, the Z ester reacting much more rapidly (1 h vs. 70 h for E-3). Both salts 4 can be quite stable at high pH, typically, at pH values greater than 10, and room temperature, but at about pH 6 facile stereospecific fragmentations can be observed. […] The transformation of anti α-keto acid oximes to nitriles in aqueous solution at 40-100°C. is well known to those skilled in the art, but the corresponding process giving a phosphononitrile from a phosphonate α-oxime, observed with Z-4, was unexpected. Furthermore, an additional unexpected result in accordance with the present invention, was the finding that simple removal of the carboxy alkyl group of E-3 can create a reagent (E-4) capable of phosphorylation under mild aqueous conditions.
Synthesis of E4 & 5. 10 N NaOH ([…]) was added to E-3 (10 mg) in D2 O (0.4 ml) in an NMR tube, raising the pH to ~13. Hydrolysis was monitored by ^1 H and ^31 P NMR at room temperature. The reaction was complete in 3 d, giving a product identified by ^13 C and ^31 P NMR as E-4. ^13 C NMR (D2 O): δ (ppm) 161.8 (d, ^1 JPC =176 Hz, P--C=N), 175.4 (d, ^2 JPC =21 Hz, C=O); ^31 P NMR (D2 O, pH=13-14): δ (ppm) 2.8.
Acidification of Z-4 & 6. An analogous procedure for E-4 was carried out with the Z-3 isomer. Hydrolysis was complete within 1 h, yielding Z-4. […] (D2 O, pH=13-14): δ (ppm) 161.1 (d, ^1 JPC =127 Hz, P--C=N), […], 171.9 (d, ^2 JPC =17 Hz, C=O); ^31 P NMR (D2 O, pH=13-14): δ (ppm), 2.0.

[4] = pH dependence of the stability of DCHA+ salts 3 in D2O (31P NMR); assay type: physicochemical; details: 22° C.; for stability in D2O: 24 h, pH 2-8; for remaining at 24 h / Z isomer formed from E-3 (% int, 31P NMR) / F, fragmentation product (HO)2P(O)OH from E-3 (% int) / H, hydrolysis product 4 from E-3 (% int) / E isomer formed from Z-3 (% int, 31P NMR) / F, fragmentation product (HO)2P(O)CN from Z-3 (% int) / H, hydrolysis product 4 from Z-3 (% int): t = 24 h
Procedure: pH Dependence of the Stability of DCHA^+ Salts 3. These experiments were carried out in 5 mm glass NMR tubes in D2 O at 22° C., concentration of 3 0.1% (w/v).

[5] = Stability of C-esters of Troika acid (E-2) in water; assay type: physicochemical
[6] = for fragmentation product: about pH 6; for stability at high pH: pH greater than 10, room temperature
[7] = assay type: physicochemical
[8] = pH 10, 27° C.; known to those skilled in the art; cited from earlier work
[9] = Exp 2, EtOH:i-PrOH 1:1, 79° C., 30 h
[10] = Exp 3, EtOH:t-BuOH 1:1, 79° C., 28 h
[11] = Exp 5, H2O (pH 6-7), 82-84° C., 4.0 h
[12] = Exp 8, H2O (pH 6-7), 82-84° C., 5.7 h

O=C(OCc1ccccc1[N+](=O)[O-])/C(=N\O)P(=O)(O)O [ONBCE-TA]
phosphoric acid formed (yield) ([1]; UV, 17 hr, 39° C., 100 mM Tris pH 6.9): 11% | phosphorylation without irradiation ([1]; absence of UV irradiation): not noticed

COC(=O)/C(=N\O)P(=O)(O)O [E-3, Dicyclohexylammonium E-Methyl (Hydroxyimino)phosphonoacetate]
stability on heating ([2]; 5 h in 1:1 MeOH:i-PrOH, 72° C.): unchanged | Et phosphate and i-Pr phosphate formed ([2]; 30 h in 1:1 EtOH:i-PrOH, 79° C.): 84% | Et-phosphate (yield, %) [2, 9]: 48.3% | Z-isomer (yield, %) [2, 9]: 2.5% | i-Pr-phosphate (yield, %) [2, 9]: 35.8% | phosphate (yield, %) [2, 9]: 8.5% | s.m. (%) [2, 9]: 4.9% | Et-phosphate (yield, %) [2, 10]: 33.9% | Z-isomer (yield, %) [2, 10]: 29.4% | phosphate (yield, %) [2, 10]: 9.4% | s.m. (%) [2, 10]: 10.4% | t-Bu-phosphate (yield, %) [2, 10]: 16.9% | phosphate (yield, %) ([2]; Exp 4, H2O (pH 4.0), 82-84° C., 3.5 h): 100% | phosphate (yield, %) [2, 11]: 87.7% | s.m. (%) [2, 11]: 12.3% | phosphate (yield, %) ([2]; Exp 6, MeCN, 81° C., 3.5 h): 0.6% | phosphononitrile (yield, %) ([2]; Exp 6, MeCN, 81° C., 3.5 h): 2.1% | polyphosphates (yield, %) ([2]; Exp 6, MeCN, 81° C., 3.5 h): 80.9% | s.m. (%) ([2]; Exp 6, MeCN, 81° C., 3.5 h): 16.4% | polyphosphate products ([2]; refluxing acetonitrile, several hours): 81% | degraded at 3.5 h ([2]; H2O, pH 4.0, 3.5 h, 82-84° C.): 100% | degraded at 3.5 h ([2]; H2O, pH ~6.5, 3.5 h, 82-84° C.): 88% | time to complete hydrolysis ([3]; pH ~13, room temperature): 3 days | time of alkaline hydrolysis [3]: 70 h | stability in D2O [4]: stable | E isomer (% int, 31P NMR) ([4]; t = 0, pH 2.0, D2O): 100% | E isomer (% int, 31P NMR) ([4]; t = 0, pH 4.0, D2O): 100% | E isomer (% int, 31P NMR) ([4]; t = 0, pH 6.2, D2O): 100% | E isomer (% int, 31P NMR) ([4]; t = 0, pH 8.1, D2O): 100% | E isomer (% int, 31P NMR) ([4]; t = 0, pH 10.4, D2O): 100% | E isomer (% int, 31P NMR) ([4]; t = 0, pH 11.0, D2O): 100% | remaining at 24 h ([4]; pH 2.0, D2O, read-out: E isomer (% int, 31P NMR)): 100% | remaining at 24 h ([4]; pH 4.0, D2O, read-out: E isomer (% int, 31P NMR)): 100% | Z isomer formed from E-3 (% int, 31P NMR) ([4]; pH 6.2, D2O): 8.9% | remaining at 24 h ([4]; pH 6.2, D2O, read-out: E isomer (% int, 31P NMR)): 91.1% | Z isomer formed from E-3 (% int, 31P NMR) ([4]; pH 8.1, D2O): 8.7% | remaining at 24 h ([4]; pH 8.1, D2O, read-out: E isomer (% int, 31P NMR)): 91.3% | F, fragmentation product (HO)2P(O)OH from E-3 (% int) ([4]; pH 10.4, D2O): 1.2% | H, hydrolysis product 4 from E-3 (% int) ([4]; pH 10.4, D2O): 6.9% | Z isomer formed from E-3 (% int, 31P NMR) ([4]; pH 10.4, D2O): 3.0% | remaining at 24 h ([4]; pH 10.4, D2O, read-out: E isomer (% int, 31P NMR)): 87.2% | F, fragmentation product (HO)2P(O)OH from E-3 (% int) ([4]; pH 11.0, D2O): 3.6% | H, hydrolysis product 4 from E-3 (% int) ([4]; pH 11.0, D2O): 18.4% | Z isomer formed from E-3 (% int, 31P NMR) ([4]; pH 11.0, D2O): 1.8% | remaining at 24 h ([4]; pH 11.0, D2O, read-out: E isomer (% int, 31P NMR)): 76.2%

COC(=O)/C(=N\O)P(=O)(O)O [E-2, methyl α-(hydroxyimino)phosphonoacetic acid]
stability in water ([5]; H2O at physiological pH): stable | stability in water ([5]; neutral and acidic pH, room temperature): stable at both acidic and neutral pH; also recorded: stable in water at room temperature | thermal stability ([2]; 1 d in refluxing AN, DCHA+ salt): decomposed to polyphosphates

O=C(O)/C(=N/O)P(=O)(O)O [Z-4]
half-life (physchem; d2o, pH 6): ~5 min | fragmentation product [6]: cyanophosphonic acid | stability at high pH [6]: quite stable

COP(=O)(O)/C(=N/O)C(=O)O [E-13, Bis-DCHA^+ Salt (E-13) of (E)-(Hydroxyimino)-(hydroxymethoxyphosphinyl)acetic Acid]
ethyl and t-butyl methyl phosphate, total ([7]; 1:1 EtOH-t-BuOH): 24% | phosphorylation products ([7]; heated in acetonitrile or EtOH): 16-19%

O=C(O)/C(=N\O)P(=O)(O)O [E-4]
half-life (physchem; d2o, pH 5.7): < 10 min | half-life (physchem; water, pH 6): < 10 min | fragmentation product [6]: exclusively orthophosphoric acid | stability at high pH [6]: quite stable

O=C(CP(=O)(O)O)Oc1ccc([N+](=O)[O-])cc1 [p-nitrophenyl phosphonoacetate]
hydrolysis vs. p-nitrophenyl acetate (times slower) [8]: 250 ×

COC(=O)/C(=N/O)P(=O)(O)O [Z-3, Bis(dicyclohexylammonium) Z-Methyl (Hydroxyimino)phosphonoacetate]
stability on heating ([2]; 4 h in 1:1 EtOH:i-PrOH, 79° C.): stable | E-isomer (yield, %) [2, 12]: 4.7% and 5% | phosphate (yield, %) [2, 12]: 27.8% and 28% | phosphononitrile (yield, %) [2, 12]: 13.4% and 13% | s.m. (%) [2, 12]: 54.1% | conversion ([2]; H2O, 5.7 h, 82-84° C.): 46% | time to complete hydrolysis ([3]; room temperature): ≤ 0.042 days | time of alkaline hydrolysis [3]: 1 h | stability in D2O [4]: stable | Z isomer (% int, 31P NMR) ([4]; t = 0, pH 2.0, D2O): 100% | Z isomer (% int, 31P NMR) ([4]; t = 0, pH 4.2, D2O): 100% | Z isomer (% int, 31P NMR) ([4]; t = 0, pH 6.7, D2O): 100% | Z isomer (% int, 31P NMR) ([4]; t = 0, pH 8.3, D2O): 100% | Z isomer (% int, 31P NMR) ([4]; t = 0, pH 10.4, D2O): 100% | Z isomer (% int, 31P NMR) ([4]; t = 0, pH 11.0, D2O): 100% | remaining at 24 h ([4]; pH 2.0, D2O, read-out: Z isomer (% int, 31P NMR)): 100% | remaining at 24 h ([4]; pH 4.2, D2O, read-out: Z isomer (% int, 31P NMR)): 100% | E isomer formed from Z-3 (% int, 31P NMR) ([4]; pH 6.7, D2O): 5.0% | remaining at 24 h ([4]; pH 6.7, D2O, read-out: Z isomer (% int, 31P NMR)): 95% | E isomer formed from Z-3 (% int, 31P NMR) ([4]; pH 8.3, D2O): 7.4% | remaining at 24 h ([4]; pH 8.3, D2O, read-out: Z isomer (% int, 31P NMR)): 92.6% | E isomer formed from Z-3 (% int, 31P NMR) ([4]; pH 10.4, D2O): 8.5% | F, fragmentation product (HO)2P(O)CN from Z-3 (% int) ([4]; pH 10.4, D2O): 1.7% | H, hydrolysis product 4 from Z-3 (% int) ([4]; pH 10.4, D2O): 2.6% | remaining at 24 h ([4]; pH 10.4, D2O, read-out: Z isomer (% int, 31P NMR)): 87.2% | F, fragmentation product (HO)2P(O)CN from Z-3 (% int) ([4]; pH 11.0, D2O): 9.2% | H, hydrolysis product 4 from Z-3 (% int) ([4]; pH 11.0, D2O): 14.5% | remaining at 24 h ([4]; pH 11.0, D2O, read-out: Z isomer (% int, 31P NMR)): 76.3%
